Test results published in PubChem BioAssay (NCI).
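Grown in 96-well plates, cells were treated for 48 hours with each compound at five concentrations. Insufficient inhibition: endpoint recorded as highest concentration tested. TGI is the concentration that stops growth completely.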

Assays:
Test in all cases: inhibition of tumour cell growth, NCI panel, 48 h
[1] = test system: A498 renal
[2] = test system: A549 NSCLC
[3] = test system: ACHN renal
[4] = test system: CAKI-1 renal
[5] = test system: CCRF-CEM leukemia
[6] = test system: COLO 205 colon
[7] = test system: DLD-1 colon
[8] = test system: DMS 114 small cell lung
[9] = test system: DMS 273 small cell lung
[10] = test system: EKVX NSCLC
[11] = test system: HCC-2998 colon
[12] = test system: HCT-116 colon
[13] = test system: HCT-15 colon
[14] = test system: HL-60(TB) leukemia
[15] = test system: HOP-62 NSCLC
[16] = test system: HOP-92 NSCLC
[17] = test system: HT29 colon
[18] = test system: IGROV1 ovarian
[19] = test system: K-562 leukemia
[20] = test system: KM12 colon
[21] = test system: KM20L2 colon
[22] = test system: LOX IMVI melanoma
[23] = test system: LXFL 529 NSCLC
[24] = test system: M14 melanoma
[25] = test system: M19-MEL melanoma
[26] = test system: MOLT-4 leukemia
[27] = test system: NCI-H226 lung
[28] = test system: NCI-H23 lung
[29] = test system: NCI-H460 lung
[30] = test system: NCI-H522 lung
[31] = test system: OVCAR-4 ovarian
[32] = test system: OVCAR-5 ovarian
[33] = test system: OVCAR-8 ovarian
[34] = test system: RPMI-8226 leukemia
[35] = test system: RXF 393 renal
[36] = test system: SF-268 CNS
[37] = test system: SF-295 CNS
[38] = test system: SF-539 CNS
[39] = test system: SK-MEL-2 melanoma
[40] = test system: SK-MEL-28 melanoma
[41] = test system: SK-MEL-5 melanoma
[42] = test system: SK-OV-3 ovarian
[43] = test system: SN12C renal
[44] = test system: SNB-19 CNS
[45] = test system: SNB-75 CNS
[46] = test system: SNB-78 CNS
[47] = test system: SR leukemia
[48] = test system: SW-620 colon
[49] = test system: TK-10 renal
[50] = test system: U251 CNS
[51] = test system: UACC-257 melanoma
[52] = test system: UACC-62 melanoma
[53] = test system: UO-31 renal
[54] = test system: XF 498 CNS
[55] = test system: 786-0 renal
[56] = test system: MALME-3M melanoma
[57] = test system: OVCAR-3 ovarian
[58] = test system: HOP-18 NSCLC
[59] = test system: RXF-631 renal

Measured: TGI

NS(=O)(=O)C1CCCCC1C(=O)NNC(=O)C(=O)Nc1nc(=S)[nH][nH]1 (configuration not stated)
> 100 µM: [1] | [2] | [3] | [4] | [5] | [6] | [7] | [8] | [9] | [10] | [11] | [12] | [13] | [14] | [15] | [16] | [17] | [18] | [19] | [20] | [21] | [22] | [23] | [24] | [25] | [26] | [27] | [28] | [29] | [30] | [31] | [32] | [33] | [34] | [35] | [36] | [37] | [38] | [39] | [40] | [41] | [42] | [43] | [44] | [45] | [46] | [47] | [48] | [49] | [50] | [51] | [52] | [53] | [54]

CCCCc1c2c(nc3c1CC/C(=C\c1ccccc1)C3=O)CCCC2
10.9 µM: [43]
16 µM: [37]
12.7 µM: [7] | [21]
28 µM: [2]
5.32 µM: [48]
10.3 µM: [14]
22.9 µM: [42]
10.8 µM: [50]
18.3 µM: [51]
6.35 µM: [35]
23.1 µM: [6]
6.37 µM: [30]
9.52 µM: [40]
4.75 µM: [17]
8.34 µM: [11]
16.9 µM: [25]
29.4 µM: [5]
4.71 µM: [38]
20.2 µM: [56]
4.16 µM: [23]
18.9 µM: [24]
7.04 µM: [34] | [52]
8.26 µM: [9]
19.1 µM: [53]
4.79 µM: [33]
24.9 µM: [10]
27.5 µM: [8]
16.5 µM: [15]
11.5 µM: [47]
21.1 µM: [49]
13.5 µM: [20]
3.48 µM: [22]
12.6 µM: [36] | [44]
9.38 µM: [46]
23 µM: [45]
10.4 µM: [57]
25.9 µM: [3]
32.3 µM: [19]
12.3 µM: [13]
17.7 µM: [28] | [29]
16.1 µM: [12]
5.64 µM: [55]
11.7 µM: [26]
15.2 µM: [18]

CN1OC(CO)CC12C1CC3CC(C1)CC2C3 (configuration not stated)
> 100 µM: [55] | [1] | [2] | [3] | [4] | [5] | [6] | [7] | [8] | [9] | [11] | [12] | [13] | [14] | [58] | [15] | [16] | [17] | [18] | [19] | [20] | [21] | [22] | [23] | [24] | [25] | [56] | [26] | [28] | [29] | [30] | [57] | [31] | [32] | [33] | [34] | [35] | [36] | [37] | [38] | [39] | [40] | [41] | [42] | [43] | [44] | [45] | [47] | [48] | [49] | [50] | [52] | [53]

COC(=O)N/N=C(\c1nc2ccc(Cl)cc2[nH]c1=O)C(O)c1ccc([N+](=O)[O-])cc1 (configuration not stated)
> 100 µM: [55] | [2] | [4] | [5] | [6] | [7] | [8] | [9] | [11] | [12] | [13] | [14] | [15] | [16] | [17] | [18] | [19] | [20] | [21] | [22] | [23] | [24] | [25] | [56] | [26] | [27] | [28] | [29] | [30] | [57] | [31] | [32] | [33] | [34] | [35] | [59] | [36] | [37] | [38] | [40] | [41] | [42] | [43] | [44] | [45] | [46] | [47] | [48] | [50] | [51] | [52] | [53]
